This passage reports Km results from paper PMC4722047, “Purification and characterization of the enzymes involved in nicotinamide adenine dinucleotide degradation by Penicillium brevicompactum NRC 829” (3 Biotech, 2016).

The assay relates to T1, NAD aminohydrolase (NAD deaminase).
T1 construct: native enzyme purified from mycelial extract (acetone, DEAE-Sephadex A-25, Sephadex G-100); 91 kDa by SDS-PAGE
As to the kind of experiment: discontinuous ammonia release (Nessler's reagent). The format is biochemical, Penicillium brevicompactum. As to conditions: pH 6.0, 50 mM Tris-acetate. An excerpt:
discontinuous ammonia release (Nessler's reagent) on NAD aminohydrolase (NAD deaminase)

Setting [1] is: 40 °C (conditions given for NAD).

With `NC(=O)c1ccc[n+]([C@@H]2O[C@H](COP(=O)(O)OP(=O)(O)OC[C@H]3O[C@@H](n4cnc5c(N)ncnc54)[C@H](O)[C@@H]3O)[C@@H](O)[C@H]2O)c1` [NAD], the Km (40 °C, 30 min, 1.5-20 µM NAD+) worked out at 5.2 µM.
For the compound `Nc1ncnc2c1ncn2[C@@H]1O[C@H](COP(=O)(O)OP(=O)(O)O)[C@@H](O)[C@H]1O` [ADP], under setting [1], the Km came out at 6.25 µM.
Still for that read-out and setting: with `Nc1ncnc2c1ncn2[C@@H]1O[C@H](COP(=O)(O)O)[C@@H](O)[C@H]1O` [AMP] the figure was 8.33 µM; with `Nc1ncnc2c1ncn2[C@@H]1O[C@H](CO)[C@@H](O)[C@H]1O` [Adenosine], 4.5 µM.

Usually Km stands for the concentration of substrate that gives half-maximal velocity.
